Laboratory results published in publication PMC6001238, “Iterative Chemical Engineering of Vancomycin Leads to Novel Vancomycin Analogs With a High in Vitro Therapeutic Index” (Frontiers in Microbiology, 2018).
In brackets after ≈: the same amount, converted by molar mass.

What was measured:
E. faecalis VRE 53 = experiment: MIC, broth microdilution, vancomycin-resistant E. faecalis VRE 53 (VanA); assay type: cell-based, Enterococcus faecalis; conditions: for MIC: Enterococcus faecalis VRE 53 (vancomycin-resistant), read-out: MIC; for MIC-fold improvement vs. vancomycin: VRE 53, ratio of MIC of vancomycin and MIC of analogue
Summary of the method: (§1)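 Assayed by broth microdilution under CLSI antimicrobial testing rules. One case paired the analog or control drug with vancomycin at a 10 μM final concentration; water and inoculum-free broth were controls.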

[1] = system: Murine leukemia (L1210) cells; experiment: Cytostatic activity, L1210 cell proliferation; assay type: cell-based; conditions: mean ± SD of three experiments; highest concentration tested 250 µM; 2 days; read-out: Toxicity (IC50) L1210
Summary of the method: (§2)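 Suspensions (300,000–500,000 cells/mL) combined with equal volumes of diluted compound; 37°C; L1210 2 d / CEM 3 d / HeLa 4 d; counted by Coulter counter; IC50 vs untreated wells.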

E. faecalis VRE 37 = experiment: MIC, broth microdilution, vancomycin-resistant E. faecalis VRE 37 (VanA); assay type: cell-based, Enterococcus faecalis; conditions: Enterococcus faecalis VRE 37 (vancomycin-resistant); read-out: MIC
Summary of the method: as §1

MRSA KS89 = experiment: MIC, broth microdilution, MRSA KS89; assay type: cell-based, Staphylococcus aureus; conditions: for MIC-fold improvement vs. vancomycin: MRSA KS8, ratio of MIC of vancomycin and MIC of analogue; for MIC: Staphylococcus aureus MRSA KS8, read-out: MIC
Summary of the method: as §1

[2] = system: L1210, CEM and HeLa cell lines; experiment: Cytostatic activity, average or summary over L1210, CEM and HeLa; assay type: cell-based; conditions: average of L1210, CEM and HeLa; read-out: Toxicity (IC50) Average
Summary of the method: as §2

[3] = system: human cervix carcinoma (HeLa) cells; experiment: Cytostatic activity, HeLa cell proliferation; assay type: cell-based; conditions: mean ± SD of three experiments; highest concentration tested 250 µM; 4 days; read-out: Toxicity (IC50) HeLa
Summary of the method: as §2

E. faecalis VRE 6 = experiment: MIC, broth microdilution, vancomycin-resistant E. faecalis VRE 6 (VanA); assay type: cell-based, Enterococcus faecalis; conditions: for MIC: Enterococcus faecalis VRE 6 (vancomycin-resistant), read-out: MIC; for MIC-fold improvement vs. vancomycin: VRE 6, ratio of MIC of vancomycin and MIC of analogue
Summary of the method: as §1

MRSA KS1 = experiment: MIC, broth microdilution, MRSA KS1; assay type: cell-based, Staphylococcus aureus; conditions: for MIC-fold improvement vs. vancomycin: MRSA KS1, ratio of MIC of vancomycin and MIC of analogue; for MIC: Staphylococcus aureus MRSA KS1, read-out: MIC
Summary of the method: as §1

E. faecalis VSE 1 = experiment: MIC, broth microdilution, vancomycin-sensitive E. faecalis (VSE 1); assay type: cell-based, Enterococcus faecalis; conditions: for MIC: Enterococcus faecalis VSE 1 (vancomycin-sensitive), read-out: MIC; for MIC-fold improvement vs. vancomycin: VSE 1, ratio of MIC of vancomycin and MIC of analogue
Summary of the method: as §1

MRSA KS6 = experiment: MIC, broth microdilution, MRSA KS6; assay type: cell-based, Staphylococcus aureus; conditions: for MIC-fold improvement vs. vancomycin: MRSA KS6, ratio of MIC of vancomycin and MIC of analogue; for MIC: Staphylococcus aureus MRSA KS6, read-out: MIC
Summary of the method: as §1

S. aureus VRSA = experiment: MIC, broth microdilution, vancomycin-resistant S. aureus (VRSA); assay type: cell-based, Staphylococcus aureus; conditions: for MIC: Staphylococcus aureus VRSA, read-out: MIC; for MIC-fold improvement vs. vancomycin: VRSA, ratio of MIC of vancomycin and MIC of analogue
Summary of the method: as §1

E. faecalis VRE 29 = experiment: MIC, broth microdilution, vancomycin-resistant E. faecalis VRE 29 (VanA); assay type: cell-based, Enterococcus faecalis; conditions: for MIC: Enterococcus faecalis VRE 29 (vancomycin-resistant), read-out: MIC; for MIC-fold improvement vs. vancomycin: VRE 29, ratio of MIC of vancomycin and MIC of analogue
Summary of the method: as §1

[4] = system: human T-lymphocyte (CEM) cells; experiment: Cytostatic activity, CEM cell proliferation; assay type: cell-based; conditions: mean ± SD of three experiments; highest concentration tested 250 µM; 3 days; read-out: Toxicity (IC50) CEM
Summary of the method: as §2

S. aureus VISA/HIP5827 = experiment: MIC, broth microdilution, vancomycin-intermediate S. aureus VISA HIP5827; assay type: cell-based, Staphylococcus aureus; conditions: for MIC: Staphylococcus aureus VISA/HIP5827, read-out: MIC; for MIC-fold improvement vs. vancomycin: VISA/HIP5827, ratio of MIC of vancomycin and MIC of analogue
Summary of the method: as §1

[5] = system: S. aureus VSSA (ATCC 6538); experiment: MIC, broth microdilution, vancomycin-sensitive S. aureus (VSSA/MSSA, ATCC 6538); assay type: cell-based, Staphylococcus aureus; conditions: for MIC: Staphylococcus aureus VSSA, read-out: MIC; for MIC-fold improvement vs. vancomycin: VSSA, ratio of MIC of vancomycin and MIC of analogue
Summary of the method: as §1

MRSA KS2 = experiment: MIC, broth microdilution, MRSA KS2; assay type: cell-based, Staphylococcus aureus; conditions: for MIC-fold improvement vs. vancomycin: MRSA KS2, ratio of MIC of vancomycin and MIC of analogue; for MIC: Staphylococcus aureus MRSA KS2, read-out: MIC
Summary of the method: as §1

| MIC (E. faecalis VRE 53) [µM] | MIC-fold improvement vs. vancomycin (E. faecalis VRE 53) | MIC (E. faecalis VRE 37) [µM] | MIC-fold improvement vs. vancomycin (MRSA KS89) | MIC (MRSA KS89) [µM] | MIC (E. faecalis VRE 6) [µM] | MIC-fold improvement vs. vancomycin (E. faecalis VRE 6) | MIC-fold improvement vs. vancomycin (MRSA KS1) | MIC (MRSA KS1) [µM] | MIC (E. faecalis VSE 1) [µM] | MIC-fold improvement vs. vancomycin (E. faecalis VSE 1) | MIC-fold improvement vs. vancomycin (MRSA KS6) | MIC (MRSA KS6) [µM] | MIC (S. aureus VRSA) [µM] | MIC-fold improvement vs. vancomycin (S. aureus VRSA) | MIC (E. faecalis VRE 29) [µM] | MIC-fold improvement vs. vancomycin (E. faecalis VRE 29) | Structure (SMILES) | IC50 [1] [µM] | IC50 [2] [µM] | IC50 [3] [µM] | also measured |
| --- | --- | --- | --- | --- | --- | --- | --- | --- | --- | --- | --- | --- | --- | --- | --- | --- | --- | --- | --- | --- | --- |
| 25 (≈ 41.5 µg/mL) | 16 | 12.5 (≈ 20.8 µg/mL) | 1 | 0.78 (≈ 1.3 µg/mL) | 3.13 (≈ 5.2 µg/mL) | 64 | 2 | 0.39 (≈ 0.648 µg/mL) | 0.39 (≈ 0.648 µg/mL) | 4 | 2 | 0.39 (≈ 0.648 µg/mL) | 6.25 (≈ 10.4 µg/mL) | 16 | 12.5 (≈ 20.8 µg/mL) | 32 | CNC(CC(C)C)C(=O)NC1C(=O)NC(CC(N)=O)C(=O)NC2C(=O)NC3C(=O)NC(C(=O)NC(C(=O)NCCCNC(=O)c4ccc5ccccc5n4)c4cc(O)cc(O)c4-c4cc3ccc4O)C(O)c3ccc(c(Cl)c3)Oc3cc2cc(c3OC2OC(CO)C(O)C(O)C2OC2CC(C)(N)C(O)C(C)O2)Oc2ccc(cc2Cl)C1O (stereo not drawn) [Vanc-27] | > 250 | 185 | 76 ± 8 | IC50 [4]: 229 ± 30 µM; MIC (S. aureus VISA/HIP5827): 0.39 µM (≈ 0.648 µg/mL); MIC-fold improvement vs. vancomycin (S. aureus VISA/HIP5827): 16; MIC [5]: 0.39 µM (≈ 0.648 µg/mL); MIC-fold improvement vs. vancomycin [5]: 2; MIC-fold improvement vs. vancomycin (MRSA KS2): 2; MIC (MRSA KS2): 0.39 µM (≈ 0.648 µg/mL) |
| 25 (≈ 41.5 µg/mL) | 16 | 12.5 (≈ 20.7 µg/mL) | 2 | 0.39 (≈ 0.647 µg/mL) | 3.13 (≈ 5.19 µg/mL) | 64 | 2 | 0.39 (≈ 0.647 µg/mL) | 0.20 (≈ 0.332 µg/mL) | 8 | 4 | 0.20 (≈ 0.332 µg/mL) | 3.13 (≈ 5.19 µg/mL) | 32 | 6.25 (≈ 10.4 µg/mL) | 64 | CN[C@H](CC(C)C)C(=O)N[C@H]1C(=O)N[C@@H](CC(N)=O)C(=O)N[C@H]2C(=O)N[C@H]3C(=O)N[C@H](C(=O)N[C@H](C(=O)NCCCNC(=O)c4ccc5ccccc5c4)c4cc(O)cc(O)c4-c4cc3ccc4O)[C@H](O)c3ccc(c(Cl)c3)Oc3cc2cc(c3O[C@@H]2O[C@H](CO)[C@@H](O)[C@H](O)[C@H]2O[C@H]2C[C@](C)(N)[C@H](O)[C@H](C)O2)Oc2ccc(cc2Cl)[C@H]1O [Vanc-28] | > 250 | 182 | 68 ± 16 | IC50 [4]: 229 ± 12 µM; MIC (S. aureus VISA/HIP5827): 0.39 µM (≈ 0.647 µg/mL); MIC-fold improvement vs. vancomycin (S. aureus VISA/HIP5827): 16; MIC [5]: 0.39 µM (≈ 0.647 µg/mL); MIC-fold improvement vs. vancomycin [5]: 2; MIC-fold improvement vs. vancomycin (MRSA KS2): 4; MIC (MRSA KS2): 0.20 µM (≈ 0.332 µg/mL) |
